The assay has as its target T1, F-ATP synthase subunit γ (in MsF1-αβγH65W) (Mycolicibacterium smegmatis, UniProt A0R201, H65W).
T1 construct: gene atpG; recombinant MsF1-αβγH65W complex; with F-ATP synthase subunits α and β
The assay is described as follows: tryptophan fluorescence quenching titration. In kind it is binding.

T1 sequence (A0R201 2-307 H65W): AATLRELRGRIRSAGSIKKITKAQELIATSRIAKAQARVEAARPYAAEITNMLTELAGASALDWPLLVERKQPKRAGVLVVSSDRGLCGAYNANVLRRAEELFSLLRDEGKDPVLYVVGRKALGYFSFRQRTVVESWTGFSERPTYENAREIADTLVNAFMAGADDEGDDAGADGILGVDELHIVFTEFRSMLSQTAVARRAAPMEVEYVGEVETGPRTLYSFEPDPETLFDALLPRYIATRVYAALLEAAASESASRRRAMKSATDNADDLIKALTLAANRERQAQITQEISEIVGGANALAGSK
T1 sequence (A0R202 2-548 partner): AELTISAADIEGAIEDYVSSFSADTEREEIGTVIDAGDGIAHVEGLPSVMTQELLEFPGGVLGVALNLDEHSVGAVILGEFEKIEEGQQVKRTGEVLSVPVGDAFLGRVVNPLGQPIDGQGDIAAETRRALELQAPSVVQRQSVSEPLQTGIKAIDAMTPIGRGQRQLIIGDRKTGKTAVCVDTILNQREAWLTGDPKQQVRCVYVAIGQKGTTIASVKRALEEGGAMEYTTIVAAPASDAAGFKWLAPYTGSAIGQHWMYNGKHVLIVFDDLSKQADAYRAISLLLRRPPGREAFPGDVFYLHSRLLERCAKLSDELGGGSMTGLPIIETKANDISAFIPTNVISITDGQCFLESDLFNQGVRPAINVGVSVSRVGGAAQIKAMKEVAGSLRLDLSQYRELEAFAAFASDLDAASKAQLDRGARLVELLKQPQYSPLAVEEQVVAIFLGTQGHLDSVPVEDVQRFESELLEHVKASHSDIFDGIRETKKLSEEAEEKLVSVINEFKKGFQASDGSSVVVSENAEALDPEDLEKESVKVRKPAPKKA
T1 sequence (A0R200 2-475 partner): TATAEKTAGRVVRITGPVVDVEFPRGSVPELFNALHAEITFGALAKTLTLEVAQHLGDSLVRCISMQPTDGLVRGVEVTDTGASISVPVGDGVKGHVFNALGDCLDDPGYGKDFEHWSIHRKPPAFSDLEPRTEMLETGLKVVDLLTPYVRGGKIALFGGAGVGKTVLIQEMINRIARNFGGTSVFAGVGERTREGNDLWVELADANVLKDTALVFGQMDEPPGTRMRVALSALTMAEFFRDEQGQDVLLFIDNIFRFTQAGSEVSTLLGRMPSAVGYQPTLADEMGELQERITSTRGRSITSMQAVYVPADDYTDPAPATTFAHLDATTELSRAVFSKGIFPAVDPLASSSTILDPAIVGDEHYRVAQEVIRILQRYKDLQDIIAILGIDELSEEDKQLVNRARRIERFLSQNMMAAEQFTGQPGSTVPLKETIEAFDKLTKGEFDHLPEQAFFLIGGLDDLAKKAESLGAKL

Usually Kd stands for the concentration at which binding is half-saturated. A lower Kd goes with higher affinity. With `CCNc1cc(C)nc(Nc2ccc3nc(-c4ccc(Cl)cc4)[nH]c3c2)n1` [GaMF1.39], the affinity, expressed as Kd, was 700 ± 90 nM.

(Values after publication PMC10715162 (Microbiology Spectrum, 2023).)
